{"source": "patent US20230313389A1", "about": "“APPARATUS AND METHOD FOR THE ELECTROLYTIC PRODUCTION OF HYPOCHLOROUS ACID” (GROUPE OXWELL INC., priority 2020, published 2023)", "origin": "cited, not measured here", "key": {"[1]": {"details": "under ideal conditions"}, "[2]": {"tested_on": "viruses, including coronaviruses", "details": "variety of viruses"}, "[3]": {"details": "as disinfectant"}}}
{"smiles": "OCl", "note": "[HOCl, Hypochlorous acid]", "values": [{"measurement": "shelf life (time HOCl is effective)", "setting": "[1]", "result": "up to 2 weeks"}, {"measurement": "time to inactivate viruses", "setting": "[2]", "result": "less than 1 minute"}, {"measurement": "effectiveness relative to chlorine in the form of ClO-", "setting": "[3]", "result": 100, "unit": "times"}]}
